Here are results for 6 compounds from patent US5695761A, “Suppression of nitric oxide production by osteopontin” (Rutgers University, priority 1993, dated 1997).

Experiment [1] has as its system primary mouse kidney proximal tubule epithelial cells. As to the kind of experiment: Nitrite accumulation (Griess reagent) in PTE cells stimulated with LPS and γ-IFN. The format is cell-based. The conditions noted are these: for effect on LPS and γ-IFN-induced nitrite (NO) production: agent alone on stimulated cells, nitrite at 24 h; for nitrite production relative to the LPS and γ-IFN-stimulated cells: measured at 24 h. The procedure: Cell culture. […] Clin. Invest. 91:2138-43). Briefly, slices of cortex from decapsulated kidneys were washed in unsupplemented RPMI 1640 and cut int 1-2 mm^3 pieces, which were then incubated for 20 min. at 37° C. in Krebs-Henseleit buffer (Sigma Chemical Co., St. Louis, Mo.) supplemented with 10 mM HEPES (pH 7.5), 1 g/l D-glucose, 200 mg/1 sodium pyruvate, 0.125 mg/ml collagenase (Type 1A, Sigma), and 0.6 U/ml dispase (Boehringer Mannheim Biochemica, Indianapolis, Ind.). The digested cortex was centrifuged at 70×g for 3 min and the cells resuspended in RPMI 1640 supplemented with 10 mM HEPES (pH 7.5), 5 μg/ml human transferrin, 50 nM dexamethasone, 5 μg/ml insulin (Gibco, Gaithersberg, Md.), 3% fetal bovine serum, 100 U/ml penicillin and 100 μg/ml streptomycin. For NO measurements, cells were subcultured into 24-well culture plates (Linbro, Hamden, Conn.) at 5×10^4 cells/16-mm well and incubated overnight. After removal of the medium, the cells were washed 3 times with Dulbecco's phosphate buffered saline (Sigma D5652), and re-fed with phenol red-free RPMI 1640 medium containing 2 mM […] and 10 μg/ml tetrahydrobiopterin (ICN Biochemicals, Cleveland, Ohio) in the presence or absence of 100 ng/ml lipopolysaccharide (LPS) (Sigma) and 100 U/ml recombinant mouse γ-interferon (γ-IFN). Measurement of NO (as NO2^-) production. Nitric oxide is a short-lived reactive nitrogen intermediate that in aqueous solution in the absence of oxyhemoproteins or superoxide, is oxidized primarily to nitrite (Ignarro et al., 1993, Proc. Natl. Acad. Sci. U.S.A. 90:8103-07). Under such conditions NO production can be assessed by the accumulation of nitrite in the medium. […] Biochem. 126:131-138).
(In general: The Griess reaction detects nitrite, a stable product of nitric oxide.)

Experiment [2] has as its system mouse primary kidney PTE cells. The experiment in a line: Nitrite production over 3 days in PTE cells treated with angiotensin II. To be noted: for effect on A II-induced nitrite production: 3 days incubation with A II; for nitrite production: agent alone, 3 days incubation. The format is cell-based. The procedure:
FIG. 7. Angiotensin II enhances nitrite production by a process that can be reversed by OPN in PTE cells. Primary mouse kidney proximal tubule epithelial cells were grown as described in the Examples, infra. Cell were cultured and the medium collected after three days of growth in medium with the indicated supplements.
Preparation of Cells. CD-1 mice aged 4-6 weeks were obtained from Laboratory Animal Services of Nelson Biological Laboratory, Rutgers University, New Jersey. Primary mouse kidney proximal tubule epithelial (PTE) cells were prepared as previously described in Example 1. For NO measurement, cells were subcultured into 24-well tissue culture plates (Linbro, Hamden, Conn.) at 5×10^4 cells per well and incubated overnight for cell attachment. After removal of the medium, the cells were washed twice with Dulbecco's phosphate buffered saline (0.2 g/l KCl, 0.2 g/l KH2 PO4, 8 g/l NaCl, 1.15 g/l Na2 HPO4) and re-fed phenol red-free RPMI 1640 medium (Gibco) containing 10 μg/ml tetrahydrobiopterin (ICN Biochemicals, Cleveland Ohio).
Measurement of NO Production. Synthesis of NO in the medium over a 3-day period was determined by the accumulation of nitrite, a stable oxidized product of NO (Marletta, 1988, Chem. Res. Toxicol. 1:249-257). Nitrite was measured with the Griess reagents using sodium nitrite as standard, as described in Example 1.

For experiment [3], the system named is inducible nitric oxide synthase (iNOS) mRNA. As to the kind of experiment: Northern blot analysis of iNOS mRNA in stimulated PTE cells. To be noted: measured at 8 h, subconfluent PTE cells. It counts as cell-based, mouse. The procedure: FIGS. 3A and 3B. Inhibition of inducible NO-synthase (iNOS) gene induction by OPN. A) Northern blot analysis of iNOS mRNA and 18s rRNA levels in primary mouse kidney epithelial cells 8 h after treatment. B) Accumulation of nitrite in the medium 24 h after treatment. Values are the mean±standard error from three separate plates. Lane 1: control; lanes 2, 4 and 5: stimulated with 100 ng/ml LPS plus 100 U/ml γIFN; lanes 3 and 4: treated with 1 pM OPN; lanes 5 and 6: treated with 100 pM OPN.
Northern blot analysis. Total RNA was isolated using the TRI reagent (Molecular Research Center, Cincinnati, Ohio). The RNA (5 μg) was fractionated on formaldehyde-agarose gels, blotted and probed using standard procedures (Sambrook et al., 1989, supra). The mouse cDNA corresponding to the macrophage inducible nitric oxide synthase gene (iNOS) has been described (Lyons, 1992, J. Biol. Chem. 267:6370-74).

For experiment [4], the system named is iNOS protein. The experiment in a line: Immunofluorescence analysis of iNOS protein in PTE cells. The format is cell-based, mouse. The conditions noted are these: 100 pM OPN, LPS 100 ng/ml and γIFN 100 U/ml, 48 h. The procedure: FIGS. 4A-D. OPN-induced suppression of iNOS protein in PTE cells. Cells were fixed and permeabilized by incubation of 30 min with 0.4 mM lysophosphatidylcholine in 1% buffered formalin. After washing three times with phosphate-buffered saline, cells were blocked with 0.1% bovine serum albumin in phosphate-buffered saline and then incubated for 4 h first with a 1:10,000 dilution of rabbit peptide antibody to the C-terminal 10 amino acids of iNOS. After washing, the cells were incubated with FITC-conjugated goat-anti rabbit secondary antibody (Cappel, West Chester, Pa.). After an additional 30 min, the cells were washed and analyzed for fluorescence intensity using a Meridian ACAS anchored cell analysis system. A) Upper left, untreated control cells; B) upper right, cells treated for 48 h with LPS (100 ng/ml) and γIFN (100 U/ml); C) lower left, cells treated for 48 h with OPN (100 pM); D) lower right, cells treated for 48 h with LPS, γIFN and OPN. The color bar represents relative fluorescence intensity on the four-decade log scale with white being the most intense.

Experiment [5] relates to constitutive nitric oxide synthase (cNOS) mRNA. The experiment in a line: Northern blot analysis of cNOS mRNA in PTE cells. To be noted: 12 h. It counts as cell-based, mouse. The procedure: FIGS. 8A and 8B. Norther blot analysis of constitutive nitric oxide synthase (cNOS) mRNA expression. (A) Autoradiogram of RNA separated by agarose-formaldehyde gel electrophoresis, transfered to nylon membranes, and probed with ^32 P-labelled oligonucleotide probes as described in Example 2, infra. (B) Reltive intensities of cNOS to 18S rRNA quantified by densitometry. Cells were treated with buffer, angiotensin (1 μM), angiotensin with osteopontin (0.1 and 0.001 nM), or ionomycin, as indicated in B. The blots in (A) correspond to the bars in (B).
Northern Blot Analysis. Total RNA was isolated using TRI reagent (Molecular Research Center, Cincinnati, Ohio) after 12 h stimulation in the medium (see Example 1). Rat brain constitutive nitric oxide synthase (cNOS) cDNA was obtained as described (Bredt et al., 1991, Nature 351:714-718). Five μg of total RNA was separated on an agarose-formaldehyde gel, transferred onto a nylon membrane (GeneScreen Plus, NEN Research Products, Du Pont, Boston, Mass.) and hybridized with a ^32 P-labeled cNOS cDNA probe. The blot was washed 3 times with 0.5×SSC, 0.1% SDS at 65° C. and autoradiographed for 1 to 3 days. The membrane was stripped and successively hybridized to a mouse 18S rRNA probe. The relative intensities of cNOS to 18S rRNA in the resulting autoradiograms were quantified by densitometry (Pharmacia LKB, UltraScan XL).

Experiment [6] has as its system primary mouse PTE cells. The experiment in a line: Intracellular calcium mobilization (Indo-1 AM) in PTE cells. It counts as cell-based. The procedure:
FIGS. 9A-D. Induction of calcium mobilization by ionomycin, angiotensin II and osteopontin in PTE cells. Cells were incubated with 1 μM Indo-1 AM [1-(2-amino-5-(6-carboxyindol-2-yl)phenoxy)-2-(2'-amino-5'-methylphenoxy)ethane-N,N,N',N'-tetraacetic acid) and analyzed on a Meridian 570 Anchored Cell Analysis System (ACAS) equipped with an Innova 90 5-W laser adjusted to an output of 100 mW. Calcium mobilization was quantified by scanning single 150×150 μm fields containing about 10 cells every 30 s for a total of 10 min and quantifying the emission at 500 nm (calcium-free Indo-1) and 400 nm (calcium-bound Indo-1). After 1 min, the cells were stimulated with (A) control, (B) 10 μM ionomycin, (C) […] angiotensin II, and (D) 2 nM or 0.1 nM OPN.
Measurement of intracellular calcium mobilization. Primary mouse PTE cells were subcultured onto collagen-coated Nunc coverglass chambers (Nunc, Inc., Naperville, Ill.). Intracellular calcium mobilization was monitored using a fluorescent, calcium-sensitive indicator Indo-1-acetoxymethyl ester (Indo-1 AM) (Molecular Probes, Eugene, Oreg.) and qualified on a Meridian 570 Anchored Cell Analysis (ACAS) equipped with an Innova 90-5W laser adjusted to an output of 100 mW. Cells were washed with HBSS containing 0.3% bovine serum albumin (BSA) and incubated with 1 μM Indo-1 AM at 37° C. for 30 min. Then, the cells were washed 3 times and 1 ml of HBSS containing 0.3% BSA was added. The calcium ratio was determined by scanning single 150×150 μm field containing about 10 cells every 30 sec for a total of 10 min and recording the emission at 500 nm (calcium-free Indo-1) and 400 nm (calcium-saturated Indo-1). Intracellular calcium concentrations were determined by generating a standard curve using a known calcium solution (Gardner et al., 1993, J. Leukocyte Biol. 53:190-196). All data were analyzed with Meridian ACAS statistical software.
On the technique in general: A change in cytosolic calcium serves as a functional read-out for many receptors and channels.

Experiment [7] concerns osteoclasts. To be noted: Zimolo et al. 1993; cited from earlier work.
The subject of experiment [8] is rabbit kidney PTE cells. The conditions noted are these: primary cultures of rabbit kidney PTE cells; Norman et al. 1987; cited from earlier work.

Where two headings read alike, the source gives them in different places.

In the case of Ac-PTVDVPDGRGDSLAYGLRSK-NH2 [OPP], in experiment [1], the “effect on LPS and γ-IFN-induced nitrite (NO) production” value was “effective at reducing LPS and γ-IFN-induced NO production”.
For the compound `CNC(=N)NCCC[C@H](N)C(=O)O` [L-NMA, N^G -methyl-L-arginine, reference compound], the “effect on LPS and γ-IFN-induced nitrite (NO) production” value in experiment [1] was “Inhibition of nitrite accumulation”. For the same compound, in experiment [2], the “effect on A II-induced nitrite production” value is recorded as “inhibited the nitrite production induced by A II”.
As for “OPN: Recombinant human osteopontin, secreted 44 kDa RGD-containing phosphoprotein, purified from transfected MH2 human embryonic kidney cells”, the “nitrite production relative to the LPS and γ-IFN-stimulated cells” value in experiment [1] (1 pM OPN added simultaneously with inducers) was 45%; in experiment [1] (100 pM OPN added simultaneously with inducers), 24%. The “time-dependence of inhibition of NO production” value in experiment [1] (OPN 100 pM added 60 min prior to γ-IFN and LPS, nitrite after 24 h) is on record as “more inhibitory than when added simultaneously”. Further, the “effective concentration for suppression of NO production” value in experiment [1] (confluent cells) was “required higher concentrations”; in experiment [1] (subconfluent PTE cells) it was ~ 10 pM. Moreover, the “level of the 4 kb mRNA species (iNOS mRNA), normalized to 18 S rRNA” value in experiment [3] (1 pM OPN added simultaneously with LPS and γ-IFN) is 54%; in experiment [3] (100 pM OPN added simultaneously with LPS and γ-IFN), 31%. Moreover, in experiment [4], the “iNOS protein concentration in stimulated cells” value is “diminished concentration of iNOS protein”. For the same compound, in experiment [2], the “effect on A II-induced nitrite production” value is reported as “almost completely blocked”. The “effect on amount of A II-induced cNOS mRNA” value in experiment [5] (OPN 0.1 nM or 1 pM with A II) was “only a modest effect”. The “concentration dependence of calcium reduction” value in experiment [6] (2 nM compared with 0.1 nM OPN) was “the smaller concentration of OPN was more potent in reducing calcium levels”. In addition, the calcium mobilization result in experiment [6] (2 nM or 0.1 nM OPN) was “a reduction in the cytosolic free calcium”.
Take “OPN (purified from urine): OPN purified from urine, used by Zimolo et al. (cited)”: the “concentration raising intracellular free Ca++ level” value in experiment [7] is given as 1 pM.
As to `C[C@H](CCC(=O)O)C[C@H](C)C[C@H](C)C(=O)/C=C(\O)[C@H](C)C[C@H](C)C/C=C/[C@@H](C)[C@@H](O)[C@@H](C)[C@@H](O)C[C@@H]1CC[C@@](C)([C@H]2CC[C@@](C)([C@@H](C)O)O2)O1` [Ionomycin], in experiment [2], the nitrite production result was “increased nitrite production”. For the same compound, the “cNOS mRNA abundance” value in experiment [5] (agent alone) is recorded as “greatly increase”. The calcium mobilization entry in experiment [6] (10 μM ionomycin) was “an increase in cytosolic free calcium”.
On to “A II: angiotensin (the x-mer peptide produced from angiotensinogen), obtained from Sigma (DRVYIHPF; Angiotensin-2; UniProt P01019 25-32, looked up)”, for which the nitrite production entry in experiment [2] is reported as “dose-dependent increase in nitrite accumulation”. Besides, the “enhancement of cNOS mRNA” value in experiment [5] (angiotensin 1 μM, densitometry relative to rRNA) is listed as 3.5 fold. The calcium mobilization entry was “a fast and transient rise in cytosolic free calcium levels” in experiment [6]; “only a delayed and small transient response in calcium mobilization” in experiment [6] (1 μM, within 10 min). For the same compound, the concentration necessary to induce a transient rise in cytosolic free calcium in experiment [8] is 5 µM.
